In US10472341B2, “Bicyclic tetrahydrothiazepine derivatives useful for the treatment of neoplastic and/or infectious diseases” (APEIRON BIOLOGICS AG, priority 2015, dated 2019):
Structures can show the parent of a compound that is named as a salt.

System: Splenocytes of BL6 mice
Assay: Murine splenocytes stimulated with anti-CD3 and anti-CD28 antibodies: IL-2, CD25 on CD4 and CD8 T cells
Assay type: cell-based, mouse
Settings: for production of cytokine: murine splenocytes stimulated with anti-CD3 and anti-CD28; for enhancement of cytokine production: unstimulated murine splenocytes

Compound	CD25+ CD4 T cells (aCD3/28 stim, 0.3 μM) [% gated]	CD25+ CD8 T cells (aCD3/28 stim, 0.3 μM) [% gated]	IL-2 production (aCD3/28 stim, 0.3 μM) [ng/mL]	CD25+ CD4 T cells (aCD3/28 stim, 1 μM) [% gated]	CD25+ CD8 T cells (aCD3/28 stim, 1 μM) [% gated]	IL-2 production (aCD3/28 stim, 1 μM) [ng/mL]	CD25+ CD4 T cells (aCD3/28 stim, 3 μM) [% gated]	CD25+ CD8 T cells (aCD3/28 stim, 3 μM) [% gated]	IL-2 production (aCD3/28 stim, 3 μM) [ng/mL]	CD25+ CD4 T cells (aCD3/28 stim, 10 μM) [% gated]	CD25+ CD8 T cells (aCD3/28 stim, 10 μM) [% gated]	IL-2 production (aCD3/28 stim, 10 μM) [ng/mL]	CD25+ CD4 T cells (aCD3/28 stim, 30 μM) [% gated]	CD25+ CD8 T cells (aCD3/28 stim, 30 μM) [% gated]	IL-2 production (aCD3/28 stim, 30 μM) [ng/mL]	production of cytokine	CD25+ CD4 T cells (unstim, 0.3 μM) [% gated]	CD25+ CD8 T cells (unstim, 0.3 μM) [% gated]	IL-2 production (unstim, 0.3 μM) [ng/mL]	CD25+ CD4 T cells (unstim, 1 μM) [% gated]	other results
Cl.N[C@H]1CS(=O)(=O)c2cc(F)c(C(=O)NCCCC(F)(F)F)cc2N(Cc2ccc(Cl)cc2)C1=O [Example 70, (3R)-3-amino-5-[(4-chlorophenyl)methyl]-8-fluoro-1,1,4-trioxo-N-(4,4,4-trifluoro-butyl)-2,3,4,5-tetrahydro-1λ^6,5-benzothiazepine-7-carboxamide hydrochloride]	8.10	10.10	0.77	9.28	10.41	0.91	11.88	14.58	1.54	13.41	16.68	1.90	11.94	17.50	1.71	strongly enhanced production of cytokine	0.55	0.61	0.00	0.45	CD25+ CD8 T cells (unstim, 1 μM): 0.65 % gated; IL-2 production (unstim, 1 μM): 0.00 ng/mL; CD25+ CD4 T cells (unstim, 3 μM): 0.48 % gated; CD25+ CD8 T cells (unstim, 3 μM): 0.60 % gated; IL-2 production (unstim, 3 μM): 0.00 ng/mL; CD25+ CD4 T cells (unstim, 10 μM): 0.45 % gated; CD25+ CD8 T cells (unstim, 10 μM): 0.60 % gated; IL-2 production (unstim, 10 μM): 0.00 ng/mL; CD25+ CD4 T cells (unstim, 30 μM): 0.47 % gated; CD25+ CD8 T cells (unstim, 30 μM): 0.64 % gated; IL-2 production (unstim, 30 μM): 0.00 ng/mL; enhancement of cytokine production: such effect was not detected on unstimulated cells
N[C@H]1CS(=O)(=O)c2cc(F)c(C(=O)NC3CC3(F)F)cc2N(Cc2ccc(Cl)cc2)C1=O (stereo partly drawn) [Example 1, (3R)-3-amino-5-[(4-chlorophenyl)methyl]-N-(2,2-difluorocyclopropyl)-8-fluoro-1,1,4-trioxo-2,3,4,5-tetrahydro-1λ^6,5-benzothiazepine-7-carboxamide hydrochloride]	7.48	5.86	0.29	7.42	7.17	0.45	9.19	10.90	0.61	12.15	15.76	1.46	12.01	16.51	1.71	strongly enhanced production of cytokine	0.50	0.61	0.00	0.50	CD25+ CD8 T cells (unstim, 1 μM): 0.65 % gated; IL-2 production (unstim, 1 μM): 0.00 ng/mL; CD25+ CD4 T cells (unstim, 3 μM): 0.42 % gated; CD25+ CD8 T cells (unstim, 3 μM): 0.61 % gated; IL-2 production (unstim, 3 μM): 0.00 ng/mL; CD25+ CD4 T cells (unstim, 10 μM): 0.41 % gated; CD25+ CD8 T cells (unstim, 10 μM): 0.62 % gated; IL-2 production (unstim, 10 μM): 0.00 ng/mL; CD25+ CD4 T cells (unstim, 30 μM): 0.38 % gated; CD25+ CD8 T cells (unstim, 30 μM): 0.56 % gated; IL-2 production (unstim, 30 μM): 0.00 ng/mL; enhancement of cytokine production: such effect was not detected on unstimulated cells
